# Laboratory results: patent US11479528B2, “Heat shock protein 90 inhibitors” (TAIPEI MEDICAL UNIVERSITY, priority 2017, dated 2022)
# Read-outs that look alike come from different tables or passages of the source.
# Columns and labels:
# lung A549 = assay: Sulforhodamine B (SRB) assay, lung A549; assay type: cell-based, human; details: Homo sapiens
# Protocol: Human cancer cells were purchased from the American Type Culture Collection (Manassas, Va., USA).
# Cells were seeded in 96-well plates in medium with 5% fetal bovine serum. […] Unbound sulforhodamine B was washed out by 1% acetic acid and sulforhodamine B-bound cells were solubilized with 10 mmol/L Trizma base. […] Using the following absorbance measurements, such as time zero (T0), control growth (C), and cell growth in the presence of the drug (Tx), the percentage growth was calculated at each of the compound concentrations levels. Percentage growth inhibition was calculated as […].
# colorectal HCT116 = assay: Sulforhodamine B (SRB) assay, colorectal HCT116; assay type: cell-based; details: Homo sapiens
# Protocol: (§1) Human cancer cells were purchased from the American Type Culture Collection (Manassas, Va., USA). These cell lines were cultured in RPMI 1640 medium or DMEM supplemented with 10% FBS (v/v) and pencillin (100 U/mL)/streptomycin (100 ug/mL)/amphotericin B (0.25 ug/mL). Cultures were maintained at 37° C. in a humidified atmosphere of 5% CO2/95% air.
# (§2) Cells were seeded in 96-well plates in medium with 5% fetal bovine serum. After 24 h, cells were fixed with 10% trichloroacetic acid to represent cell population at the time of drug addition (T0). After additional incubation of DMSO or drugs for 48 h, cells were fixed with 10% trichloroacetic acid and sulforhodamine B at 0.4% (w/v) in 1% acetic acid was added to stain cells. Unbound sulforhodamine B was washed out by 1% acetic acid and sulforhodamine B-bound cells were solubilized with 10 mmol/L Trizma base. The absorbance was read at a wavelength of 515 nm. Using the following absorbance measurements, such as time zero (T0), control growth (C), and cell growth in the presence of the drug (Tx), the percentage growth was calculated at each of the compound concentrations levels. Percentage growth inhibition was calculated as […].
# liver Hep3B = assay: Sulforhodamine B (SRB) assay, liver Hep3B; assay type: cell-based; details: Homo sapiens
# Protocol: as §1, §2
# breast MDA-MB-231 = assay: Sulforhodamine B (SRB) assay, breast MDA-MB-231; assay type: cell-based; details: Homo sapiens
# Protocol: as §1, §2
# HUVEC cells = assay: Sulforhodamine B (SRB) assay, HUVEC; details: for GI50: Homo sapiens, HUVEC
# Protocol: as §1, §2
# HSP90 α protein = HSP90 α protein (Homo sapiens, UniProt P07900); assay: HSP90 ATP-binding / fluorescence polarization competition assay (enzyme inhibition)
# Protocol: To assess the inhibition of HSP90 activity within a cellular context, cells were treated with certain substituted aromatic compounds of formula (I) and the inhibition of HSP90 ATP-binding activity in cells was determined by using an ATP pull-down assay. Cells were treated with the compounds for 24 hours and then lysed in TNESV buffer (50 mM Tris, 2 mM EDTA, […], 1 mM activated sodium orthovanadate, 25 mM NaF, 1% Triton X-100 [pH 7.5]) for 30 min at 4° C. Lysates were spun for 30 min at 12000 rpm at 4° C. Protein (200 ug) was incubated with conditioned γ-ATP-polyacrylamide resin in incubation buffer (10 mM Tris-HCl, 50 mM KCl, 5 mM MgCl2, 20 mM Na2MoO4, 0.01% Nonidet P-40) overnight at 4° C., rotating. The resin was then washed four times with incubation buffer. Bound proteins were isolated by boiling with SDS buffer. For the competition studies, fluorescence polarization assays were performed under the following conditions: each 96-well plate contained 5 nM fluorescent GM (geldanamycin), 30 nM HSP90 α protein, and tested inhibitor in a final volume of 100 uL. For each assay, background wells (buffer only), tracer controls (free, fluorescent GMonly), and bound GM controls (fluorescent GM in the presence of HSP90) were included on each assay plate. The fraction of tracer bound to HSP90 was correlated to the mP value and plotted against log 10 values of competitor concentrations. The inhibitor concentration at which 50% of bound GM was displaced was obtained by fitting the data.
# [1] = tested on: HSP90 client proteins, i.e., EGFR, Akt, CDK-4, and HSP70, in HCT-116 tumor cells; assay: Western blot of HSP90 client proteins in HCT-116 tumor cells; assay type: cell-based, human; details: HCT-116 cells, 24 hours after treatment
# Protocol: Western blot analysis was performed to detect cell apoptotic signaling activated by substituted aromatic compounds of formula (I). Cells were harvested by scraping with lysis buffer (1 mM EGTA, 1 mM EDTA, 150 mM NaCl, 1% Triton X-100, 2.5 mM sodium pyrophosphate, 1 mM PMSF, 1 mM Na3VO4, 1 ug/mL leupeptin, 1 ug/mL aprotinin, 5 mM NaF in 20 mM Tris-HCl buffer, pH 7.5). Cell lysates were centrifuged at 13,000 g for 30 min. Total protein was determined and equal amounts of protein were separated by SDS-PAGE and immunoblotted with specific antibodies. Proteins were visualized by enhanced chemiluminescence (Amersham, Buckinghamshire, UK).
# Total cellular extracts were obtained 24 hours after treatment.
# [2] = tested on: human colon HCT116 xenograft; assay: Human colon HCT116 xenograft model; details: po; for TGI, tumor growth inhibition: n = 7-8
# Protocol: An in vivo study was conducted to evaluate the efficacy of compounds of formula (I) in suppressing tumor growth in a human colon HCT116 xenograft model.
# [3] = Pharmacokinetic profiles in rat; details: in vivo
# Protocol: A pharmacokinetic study was conducted to evaluate the pharmacokinetic properties of compounds of formula (I).
# [4] = Maximum tolerated dose and therapeutic index in vivo; details: for MTD: in vivo, po
# leukemia HL60 = assay: MTT antiproliferative assay, HL60; assay type: cell-based; details: Homo sapiens, HL-60
# lymphoblast MOLT4 = assay: MTT antiproliferative assay, MOLT4; assay type: cell-based; details: Homo sapiens, MOLT-4
# bone marrow K562 = assay: MTT antiproliferative assay, K562; assay type: cell-based; details: Homo sapiens
# [5] = tested on: human lung NSCLC A549 cancer xenograft; assay: Human lung NSCLC A549 cancer xenograft model; assay type: in vivo; details: daily oral administration
# [6] = A549, 48 h, read-out: GI50 Lung A549
# [7] = HCT-116, 48 h, read-out: GI50 Colorectal HCT116
# [8] = 48 h, read-out: GI50 Liver Hep3B
# [9] = MDA-MB-231, 48 h, read-out: GI50 Breast MDA-MB-231
# [10] = MDA-MB-231, read-out: MDA-MB-231 GI50
SMILES,GI50 (lung A549; [6]),"GI50 (lung A549; A549, read-out: A549 GI50)",GI50 (colorectal HCT116; [7]),"GI50 (colorectal HCT116; HCT-116, read-out: HCT116 GI50)",GI50 (liver Hep3B; [8]),GI50 (breast MDA-MB-231; [9]),"GI50 (HUVEC cells; 48 h, read-out: GI50 HUVEC)",IC50 (HSP90 α protein),expression levels of the chaperone HSP70 [1],"levels of HSP90 client proteins (EGFR, Akt, CDK-4) [1]","AUC(0-inf) ([3]; iv, 2 mg/kg)","Vd ([3]; iv, 2 mg/kg)","clearance ([3]; iv, 2 mg/kg)","half-life ([3]; iv, 2 mg/kg)","AUC(0-inf) ([3]; po, 20 mg/kg)","Cmax ([3]; po, 20 mg/kg)","Tmax ([3]; po, 20 mg/kg)","bioavailability ([3]; po, 20 mg/kg)","half-life ([3]; po, 20 mg/kg)",MTD [4],further results
"CC(C)c1cc(C(=O)N(C)c2ccc3c(ccn3C)c2)c(O)cc1O [Compound 20g, 2,4-dihydroxy-5-isopropyl-N-methyl-N-(1-methyl-1H-indol-5-yl)benzamide]",280 ± 20 nM,280 ± 20 nM,700 ± 60 nM,700 ± 60 nM,570 ± 320 nM,100 ± 20 nM,820 ± 30 nM,106 ± 7.58 nM,increase,substantial depletion,288 ± 59 ng·h/mL,4.3 ± 1.3 L/kg,117 ± 23 mL/min/kg,0.7 ± 0.1 h,36 ± 5 ng·h/mL,12.8 ± 8.3 ng/mL,0.5 ± 0.4 h,1.3%,2.2 ± 0.6 h,< 250 mg/kg,"GI50 (liver Hep3B; read-out: Hep3B GI50): 570 ± 320 nM; GI50 (breast MDA-MB-231; [10]): 100 ± 20 nM; TI, Therapeutic Index measured by GI50(HUVEC)/GI50(A549) (HUVEC cells): 2.9; GI50 (HUVEC cells; read-out: HUVEC GI50): 820 ± 30 nM; TGI, tumor growth inhibition ([2]; 100 mg/kg, qd): 83.9%; TI, Therapeutic Index, ratio of MTD to minimum efficacious dose (MED) [4]: <2.5"
"CCN(C(=O)c1cc(C(C)C)c(O)cc1O)c1ccc2[nH]ccc2c1 [Compound 20c, N-ethyl-2,4-dihydroxy-N-(1H-indol-5-yl)-5-isopropylbenzamide]",110 ± 10 nM,110 ± 10 nM,370 ± 50 nM,370 ± 50 nM,110 ± 20 nM,80 ± 10 nM,< 100 nM,117 ± 9.62 nM,–,–,234 ± 114 ng·h/mL,9 ± 2.8 L/kg,170 ± 64 mL/min/kg,1.5 ± 0.5 h,499 ± 38 ng·h/mL,67 ± 23 ng/mL,2.7 ± 1.2 h,22%,5.9 ± 1.6 h,100 mg/kg,"Loss of Body ([2]; 100 mg/kg, qd × 7/5 on 2 off, Day 7): −15.4%; TGI, tumor growth inhibition ([2]; 100 mg/kg, qd × 7/5 on 2 off): 33.1%; TI, Therapeutic Index, ratio of MTD to minimum efficacious dose (MED) [4]: 1"
"CC(C)c1cc(C(=O)N(C)c2ccc3[nH]ccc3c2)c(O)cc1O [Compound 20b, 2,4-dihydroxy-N-(1H-indol-5-yl)-5-isopropyl-N-methylbenzamide]",170 ± 10 nM,170 ± 10 nM,1000 ± 490 nM,1000 ± 490 nM,180 ± 40 nM,70 ± 10 nM,570 ± 20 nM,115 ± 10.7 nM,increase,substantial depletion,142 ± 25 ng·h/mL,18 ± 4.5 L/kg,237 ± 37 mL/min/kg,1.3 ± 0.3 h,533 ± 154 ng·h/mL,82 ± 34 ng/mL,2.2 ± 1.8 h,37%,7.5 ± 1.3 h,< 250 mg/kg,"GI50 (liver Hep3B; read-out: Hep3B GI50): 180 ± 40 nM; GI50 (breast MDA-MB-231; [10]): 70 ± 10 nM; TI, Therapeutic Index measured by GI50(HUVEC)/GI50(A549) (HUVEC cells): 3.4; GI50 (HUVEC cells; read-out: HUVEC GI50): 570 ± 20 nM; Loss of Body ([2]; 100 mg/kg, qd × 7/5 on 2 off, Day 5): −8.5%; TGI, tumor growth inhibition ([2]; 100 mg/kg, qd × 7/5 on 2 off): 37.7%; TI, Therapeutic Index, ratio of MTD to minimum efficacious dose (MED) [4]: <2.5"
"CCN(C(=O)c1cc(C(C)C)c(O)cc1O)c1cccnc1 [Compound 18b, N-ethyl-2,4-dihydroxy-5-isopropyl-N-(pyridin-3-yl)benzamide]",–,–,–,–,–,–,–,110 ± 3.13 nM,increase,substantial depletion,–,5.5 ± 1.1 L/kg,–,–,–,40 ± 13 ng/mL,6 ± 2 h,–,–,250 mg/kg,"GI50 (breast MDA-MB-231; MDA-MB-231, Table 2, SRB, read-out: MDA-MB-231 GI50): 90 ± 10 nM; IC50 (leukemia HL60): 240 ± 40 nM; IC50 (lymphoblast MOLT4): 190 ± 10 nM; IC50 (bone marrow K562): 130 ± 90 nM; Loss of Body ([2]; 25 mg/kg, qd): 0%; TGI, tumor growth inhibition ([2]; 25 mg/kg, qd): 55.6%; Loss of Body ([2]; 100 mg/kg, qd): 0%; TGI, tumor growth inhibition ([2]; 100 mg/kg, qd): 74.3%; TGI ([5]; 25 mg/kg): 46.7%; TGI ([5]; 50 mg/kg): 46.9%; TGI ([5]; 100 mg/kg): 50.9%; body weight loss ([5]; 25, 50, and 100 mg/kg): without significant body weight loss; AUC(0-inf) ([3]; iv, 2 mg/kg, AUC(0-inf), IV (2 mg/kg)): 520 ± 14 ng·h/mL; clearance ([3]; iv, 2 mg/kg, CL, IV (2 mg/kg)): ~64 mL/min/kg; half-life ([3]; iv, 2 mg/kg, T1/2, rat, IV (2 mg/kg)): 4 ± 1.7 h; bioavailability ([3]; oral, 20 mg/kg): 25%; AUC(0-inf) ([3]; po, 20 mg/kg, AUC(0-inf), PO (20 mg/kg)): ~1310 ng·h/mL; half-life ([3]; po, 20 mg/kg, T1/2, rat, PO (20 mg/kg)): ~27.7 h"
